The target in one experiment is T1, SHMT2 (Homo sapiens, UniProt P34897).
T1 construct: made in house
T1 sequence (P34897 30-504): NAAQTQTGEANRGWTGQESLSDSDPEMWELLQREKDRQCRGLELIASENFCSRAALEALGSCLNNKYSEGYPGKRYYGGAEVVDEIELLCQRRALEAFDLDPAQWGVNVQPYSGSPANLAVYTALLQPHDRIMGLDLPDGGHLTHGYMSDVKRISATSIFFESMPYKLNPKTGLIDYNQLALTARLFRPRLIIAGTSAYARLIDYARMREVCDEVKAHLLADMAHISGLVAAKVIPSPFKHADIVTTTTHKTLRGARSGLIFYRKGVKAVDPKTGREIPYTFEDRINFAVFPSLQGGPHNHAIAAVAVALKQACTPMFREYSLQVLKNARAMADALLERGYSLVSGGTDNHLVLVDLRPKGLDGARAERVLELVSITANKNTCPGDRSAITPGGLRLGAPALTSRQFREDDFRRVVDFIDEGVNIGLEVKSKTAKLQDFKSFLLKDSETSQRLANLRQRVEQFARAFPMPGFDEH
The experiment can be described thus: Spectrophotometric quinonoid-intermediate competitive binding assay on purified recombinant SHMT2. Type of experiment: biochemical. The following applies: purified SHMT2 5.5 μM, glycine 3.0 mM, 20 μM H4PteGlu, read-out: estimated inhibition constants (IC50). As for the experimental part:
(§1) Initially, compounds 2.2 and 2.12 (Figure 1) were tested on purified recombinant SHMT1 and SHMT2 isoforms using a spectrophotometric assay, in which the inhibitors and H4PteGlu compete for binding to the same site of the enzyme. Both isozymes (5.5 μM) were incubated with a saturating concentration of glycine (3.0 mM), in the presence of 20 μM H4PteGlu and a varying concentration of either compound 2.12 or 2.2. The activity of the enzyme was calculated from the spectrophotometric measurement of the quinonoid intermediate that develops when both glycine and H4PteGlu bind to SHMT [20]. […]
(§2) Figure 2 Activity inhibition on purified SHMTs by compound 2.12 The activity of cytosolic (black symbols) and mitochondrial (red symbols) SHMT isoforms was measured in the presence of increasing concentrations of compound 2.12. […]
(§3) Inhibition of SHMT activity by compound 2.12 was tested using competitive binding assays in which the antifolate competes for binding with H4PteGlu. […] Therefore, absorbance at 500 nm is proportional to the fraction of enzyme present as ternary complex. […] The effect of DMSO concentration on quinonoid development was analysed and found to be negligible up to 20% DMSO (v/v). […] After a rapid manual mixing, the absorbance change at 500 nm was measured. […]

For another experiment, the target named is T2, SHMT1 (Homo sapiens, UniProt P34896).
T2 construct: made in house
T2 sequence (P34896 1-483): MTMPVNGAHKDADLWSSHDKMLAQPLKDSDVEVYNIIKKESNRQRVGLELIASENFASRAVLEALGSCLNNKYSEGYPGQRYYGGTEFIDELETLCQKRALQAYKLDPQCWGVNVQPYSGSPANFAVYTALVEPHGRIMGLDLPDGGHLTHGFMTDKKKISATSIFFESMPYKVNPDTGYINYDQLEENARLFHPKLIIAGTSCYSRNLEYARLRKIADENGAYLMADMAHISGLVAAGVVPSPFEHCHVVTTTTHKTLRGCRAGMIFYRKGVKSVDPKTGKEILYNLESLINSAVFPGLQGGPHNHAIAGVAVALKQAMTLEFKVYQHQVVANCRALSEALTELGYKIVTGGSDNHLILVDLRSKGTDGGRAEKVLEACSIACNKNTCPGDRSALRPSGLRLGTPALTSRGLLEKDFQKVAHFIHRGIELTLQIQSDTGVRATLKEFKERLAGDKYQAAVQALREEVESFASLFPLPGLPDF
As to the kind of experiment: Spectrophotometric quinonoid-intermediate competitive binding assay on purified recombinant SHMT1. Type of experiment: biochemical. Conditions: purified SHMT1 5.5 μM, glycine 3.0 mM, 20 μM H4PteGlu, read-out: estimated inhibition constants (IC50). As for the experimental part:
as §1, §2, §3

Structures are written as SMILES.

Our source for the IC50 values is paper PMC4826227, “A pyrazolopyran derivative preferentially inhibits the activity of human cytosolic serine hydroxymethyltransferase and induces cell death in lung cancer cells” (Oncotarget, 2015).

What is called IC50 is the concentration needed to halve the response being measured. Turning to `CCC1(c2ccc(F)cc2)C(C#N)=C(N)Oc2[nH]nc(C)c21` (centres unmarked) [compound 2.2], the results for the IC50 at SHMT2 and at SHMT1 were 263 ± 48 µM and 154 ± 14.4 µM, respectively.
